Laboratory results as given in patent publication US20170261507A1, “Methods for Predicting and Monitoring Cancer Patients' Response to Teatment by Measuring Myeloid Derived Suppressor Cells (MDSCs)” (YISSUM RESEARCH DEVELOPMENT COMPANY OF THE HEBREW …, priority 2014, published 2017).

Columns and labels:
cleaved caspase-3 [1] = assay: Cleaved caspase-3 in splenic MDSCs of treated CRC-mice; format: in vivo, mouse
Experimental: Cleaved caspase-3 staining was performed using primary Rabbit anti-cleaved caspase-3 (Cell Signaling Technology, Asp175) and secondary FITC-horse anti-Rabbit antibody (Thermo Scientific).
Therefore, Splenic MDSCs from each group were analyzed for the expression of activated (cleaved) caspase-3 by flow cytometry analysis. […] Cleaved caspase-3 levels were then evaluated on the primary MDSCs, differentiated CD11c^+CD11b^+DCs and F4/80^+CD11b^+ macrophages.

TNFα, S100A9 = assay: TNFα and S100A9 mRNA in ex vivo cultured MDSCs (Real Time PCR); format: cell-based, mouse; conditions: 3 days
MDSC = conditions: mice, reference (11); cited from earlier work
NK-cells = assay: BCG chronic inflammation mouse model: NK-cell mediated clearance of allogeneic cells; format: in vivo; conditions: spleen and PBLs of inflamed mice
MDSCs [2] = assay: NO^− and ROS production by MDSCs of treated CRC-mice (flow cytometry); format: in vivo, mouse
Experimental: Three weeks after the second DSS treatment mice were sacrificed and spleens were analyzed.

T-cells [3] = assay: CFSE T-cell proliferation assay, splenocytes of CRC-mice; format: in vivo, mouse; conditions: CFSE-labeled Thy1.2^+ T-cells, TCR-CD28 mediated activation, vs untreated CRC-mice
Experimental: (§1) Splenocytes or purified T-cells isolated by a magnetic column separation system (Miltenyi Biotec) were labeled with 5 M CFSE (Invitrogen) and subjected to TCR-mediated activation as previously described (16). Next, the effect of the given chemotherapies on the immune status was evaluated. This was performed by testing the function of the whole T-cell population (FIG. 9J) as well as the CD8^+ T-cells (FIG. 9K) in all experimental groups along with measurements of the expression levels of CD247 in CD3^+ (FIG. 9L) and in CD8^+ T-cells (FIG. 9M). T-cell proliferative response was assessed by monitoring cell divisions of gated CFSE-labeled Thy1.2^+ (CD90^+) T-cells upon TCR-CD28 mediated activation.

MDSCs [4] = assay: BCG chronic inflammation mouse model: MDSC levels; format: in vivo; conditions: PBLs and spleen, compared to inflamed-untreated mice
Experimental: (§2) Mice were injected intraperitoneally with 10 mg/kg body weight of Azoxymethan (AOM, purchased from Sigma-Aldrich (St. Louis, Mo., USA)) dissolved in physiological saline twice in two weeks intervals. Two weeks later, 2% dextran sulfate sodium (DSS, purchased from MP biochemicals Inc. (Santa Ana, Calif., USA)) was given in the drinking water over 7 days, followed by 14 days of regular water (15). This cycle was repeated twice. Animals were sacrificed and analyzed three weeks after the last treatment. To induce a pathology-free chronic inflammation, a previously described protocol subjecting mice to heat-killed Mycobacterium […] (BCG) treatment (16) was used.
(§3) Next, the immunoregulatory effects of 5FU and CPT11 were examined in a mouse model for chronic inflammation and associated immunosuppression (10), as described in the materials and method section above and in FIG. 13A. This experiment was performed in order to investigate whether the differential effects of the drugs are related to the presence of the tumor. Briefly, the mouse model for chronic inflammation was established by three repeated injections of heat-killed BCG bacteria. A day after the second BCG injection, mice were treated twice a week with 5FU, CPT11 or a 5FU/CPT11 combination. […] No changes in CD4^+Foxp3^+ Tregs percentage were detected (FIG. 13H), confirming that these chemotherapies specifically affect MDSCs.

Gr1^+CD11b^+ MDSCs = assay: MDSC accumulation in colon, spleen and PBLs of CRC-mice; format: in vivo, mouse
CRC-derived MDSC = assay: Ex vivo GM-CSF mediated myeloid-cell differentiation; format: cell-based, mouse; conditions: 10 ng/ml GM-CSF, 72 h, vs GM-CSF only
cleaved caspase-3 [5] = assay: BCG chronic inflammation mouse model: cleaved caspase-3 in MDSCs; format: in vivo; conditions: compared to inflamed-untreated mice
MDSCs [6] = assay: BCG chronic inflammation mouse model: ROS and NO^− production by MDSCs; format: in vivo; conditions: splenic MDSCs, compared to inflamed-untreated mice
Experimental: as §2, §3

S100A8/9 = conditions: MDSCs from spleen of CRC-mice
Experimental: Cells isolated from the spleen or colon were analyzed by Western blotting for the expression of various proteins as previously described (16). The antibodies used for immunoblotting were: anti-S100A9, anti-S100A8, and anti-αTubulin. Specific antibodies were detected by anti-rabbit or anti-goat antibodies conjugated to horseradish peroxidase (Jackson Immunoresearch), followed by enhanced chemiluminescence and exposure at blotting reader (Bio-Rad software).
(§5) For that purpose the expression of the S100A8/9 pro-inflammatory proteins was assessed.

CD247 [7] = assay: CD247 expression in T-cells of CRC-mice; format: in vivo, mouse; conditions: splenocytes of CRC-mice
Experimental: as §1, with “Next,” for “Splenocytes or purified T-cells isolated by a magnetic column separation system (Miltenyi Biotec) were labeled with 5 M CFSE (Invitrogen) and subjected to TCR-mediated activation as previously described (16). Next,”

CD247 [8] = assay: BCG chronic inflammation mouse model: CD247 expression in T-cells; format: in vivo; conditions: spleen and PBLs of inflamed mice
Experimental: as §2
(§4) Next, it was assessed whether the 5FU and CPT11 opposite effects on MDSCs have different impacts on the host's immune competence. […] Since NK-cell activity is mediated via natural cytotoxicity receptors (NCRs), which associate with and depend on CD247, NK-cell in vivo function was assessed by monitoring the clearance of adoptively transferred allogeneic cells.

MDSCs [9] = assay: Myeloid cell differentiation in vivo in CRC-mice
Experimental: Isolated mouse splenocytes and peripheral blood lymphocytes (PBLs) were subjected to cell surface staining as previously described (16), using the following antibodies (Biolegend): FITC-labeled anti-Gr1, and anti-CD11c; PE-labeled anti-F4/80, anti-CD3s, and anti-mNKp46; and biotinylated anti-CD11b detected with streptavidin-Cy5. Intracellular staining for CD247 was performed as previously described (16) by using FITC-labeled anti-CD247 or biotinylated anti-CD247 (lone H146), the latter detected with streptavidin-Cy5. Foxp3 staining was performed according to the manufacturer's instructions (Miltenyi Biotec). Cleaved caspase-3 staining was performed using primary Rabbit anti-cleaved caspase-3 (Cell Signaling Technology, Asp175) and secondary FITC-horse anti-Rabbit antibody (Thermo Scientific).
as §5

CD247 [10] = assay: BCG chronic inflammation mouse model: CD247 expression in NK-cells; format: in vivo; conditions: chronically inflamed mice
Experimental: as §2, §4

[11] = test system: MDSCs isolated from spleens of CRC mice; assay: Cleaved caspase-3 in ex vivo cultured MDSCs, DCs and macrophages; format: cell-based, mouse
[12] = test system: MDSCs isolated from spleens of CRC-mice; assay: NO^− and ROS production in ex vivo cultured MDSCs; format: cell-based, mouse; conditions: 2.5 μmol/L, 24 h
T-cells [13] = assay: BCG chronic inflammation mouse model: T-cell proliferation; format: in vivo; conditions: splenocytes of inflamed mice
Experimental: as §2
Splenocytes or purified T-cells isolated by a magnetic column separation system (Miltenyi Biotec) were labeled with […] CFSE (Invitrogen) and subjected to TCR-mediated activation as previously described (16).
as §4

O=c1[nH]cc(F)c(=O)[nH]1 [5FU, 5-fluoruracil]
cleaved caspase-3 expression in spleen MDSCs (cleaved caspase-3 [1]): significant increased cleaved caspase-3 expression | mRNA levels of TNFα and S100A9 (TNFα, S100A9): decreased levels of these factors | MDSC apoptosis and tumor regression (MDSC): selective MDSC apoptosis and tumor regression | NK-cell activity (clearance of adoptively transferred allogeneic cells) (NK-cells): complete recovery of NK-cell activity | NO^− production (MDSCs [2]; lamina propria and epithelial MDSCs, vs untreated CRC mice): significant reduction of NO^− production | NO^− and ROS production (MDSCs [2]; splenic MDSCs, compared to untreated CRC-mice): significantly reduced NO^− and ROS production | T-cell proliferative ability (T-cells [3]): did not affect T-cell proliferation | MDSC levels (MDSCs [4]): significantly reduced MDSC levels | MDSC numbers / infiltration in colon (Gr1^+CD11b^+ MDSCs; lamina propria and epithelium, flow cytometry, vs untreated CRC-mice): significantly reduced MDSC infiltration | MDSC numbers in spleens (Gr1^+CD11b^+ MDSCs; vs untreated, CPT11 or 5FU/CPT11 treated CRC-mice): significantly decreased MDSC numbers | tumor load within the colon (hematoxylin-eosin histopathology) (CRC-mice; monotherapy for three weeks, vs untreated CRC mice): decreased tumor load and recovery of colon architecture | histopathological analysis of colon sections (hematoxylin-eosin) (CRC-mice; three weeks after second DSS treatment): only few aberrant crypt foci and tumors | GM-CSF mediated CRC-derived MDSC differentiation (CRC-derived MDSC): enabled MDSC differentiation to DCs and macrophages | cleaved caspase-3 levels (cleaved caspase-3 [5]): elevated cleaved caspase-3 levels | ROS and NO^− production (MDSCs [6]): significantly reduced | S100A8/9 mRNA and protein levels (S100A8/9): significant decrease in S100A8/9 mRNA and protein levels | CD247 expression levels in T-cells (CD247 [7]): elevated levels | CD247 expression in T-cells (CD247 [8]): significant recovery of CD247 expression | matured antigen presenting cells (CD80 and MHCII expression) (MDSCs [9]): induced CD80 and MHCII expression | myeloid cell differentiation in vivo (DCs and macrophages) (MDSCs [9]): significant shift towards differentiated DCs and macrophages | CD247 expression in NK-cells (CD247 [10]): almost completely recovered | 5FU-induced apoptosis (cleaved caspase-3), DCs and macrophages ([11]; ex vivo, 10 ng/ml GM-CSF, 0, 1.25, 2.5, and 5, 3 days): insensitive | 5FU-induced apoptosis (cleaved caspase-3), primary MDSCs ([11]; ex vivo, 10 ng/ml GM-CSF, 0, 1.25, 2.5, and 5 mol/L, 3 days): evident only in non-differentiated MDSCs | cleaved caspase-3 expression (MFI) in monocytic and granulocytic MDSCs ([11]; ex vivo, 2.5, 3 days, monocytic population more sensitive): enhanced cleaved caspase-3 expression | cleaved caspase-3 in purified cultured MDSCs ([11]; ex vivo, various doses, 3 days, dose-dependent): cleaved caspase-3 up-regulation | NO^− or ROS production in purified cultured MDSCs [12]: did not alter NO^− or ROS production | T-cell proliferation (T-cells [13]): significant recovery
